Test results from BindingDB's records for doi:10.1016/j.ejmech.2018.08.069 (Kanazawa University, 2018).
pIC50: −log10 of the molar value.

Experiment: Antagonist activity at AR in human LNCAP cells assessed as reduction in DHT-induced cell growth treated for every 2 days for 4 days by hemocytometry

pIC50	Compound
5.19	O=C1CC(c2ccccc2O)Oc2ccccc21 (stereo not given) [2-(2-Hydroxy-phenyl)-chroman-4-one]
5.04	CC(C)Oc1ccccc1/C=C/C(=O)c1cc(Br)ccc1O
5.43	O=C(/C=C/c1ccccc1O)c1cc(Cl)ccc1O
< 5.00	O=c1cc(-c2ccccc2O)oc2ccccc12 [2-(2-Hydroxyphenyl)-4H-chromen-4-one (3d)]
< 5.00	COc1ccc(O)c(C(=O)/C=C/c2ccccc2OC)c1
